Assay results published in US12478617B2, “Lipidated peptide inhibitors of interleukin-23 receptor” (JANSSEN BIOTECH, INC., priority 2021, dated 2025).
Where two headings read alike, the source gives them in different places. Starred links: 1 amine or outer side, 2 acyl side, 3 side chain; linkers in the order of their positions; H or OH if unused. Positions of bridges follow the written chain, without caps; N, C: chain ends. Non-standard residues stand in square brackets, D forms with d. Residues, ends and D or L forms follow the SMILES beside them. Groups on a side chain read outwards from the residue. *: point of attachment. PEG12 = NCCOCCOCCOCCOCCOCCOCCOCCOCCOCCOCCOCCOCCC(=O)O; Trp(7-Me) = Cc1cccc2c(C[C@H](N)C(=O)O)c[nH]c12; γGlu = O=C(O)[C@H](CCC(=O)[*:2])N[*:1]; 2Nal = N[C@@H](Cc1ccc2ccccc2c1)C(=O)O; Palmitoyl = CCCCCCCCCCCCCCCC(=O)*; 3Pal = N[C@@H](Cc1cccnc1)C(=O)O; αMeL = CC(C)C[C@](C)(N)C(=O)O; Pen = CC(C)(S)[C@H](N)C(=O)O; X3 = COCCOCCOCCOCCC(=O)*; Thp = NC1(C(=O)O)CCOCC1; Sar = CNCC(=O)O

What was measured:
[1] = disulfide bond, 20-membered ring, I2/AcOH, ACN/H2O
[2] = molecular target: IL-23R-expressing DB cells (Homo sapiens, UniProt Q5VWK5); assay: DB Cells IL23R pSTAT3 Cell Assay; format: cell-based; conditions: pSTAT3 (HTRF) in IL-23R-expressing DB cells, 0.5 nM IL-23, 30 minutes; Table 6 'IL-23 Cell Data'
Chain of IL-23R-expressing DB cells (Q5VWK5 24-629 limits assumed): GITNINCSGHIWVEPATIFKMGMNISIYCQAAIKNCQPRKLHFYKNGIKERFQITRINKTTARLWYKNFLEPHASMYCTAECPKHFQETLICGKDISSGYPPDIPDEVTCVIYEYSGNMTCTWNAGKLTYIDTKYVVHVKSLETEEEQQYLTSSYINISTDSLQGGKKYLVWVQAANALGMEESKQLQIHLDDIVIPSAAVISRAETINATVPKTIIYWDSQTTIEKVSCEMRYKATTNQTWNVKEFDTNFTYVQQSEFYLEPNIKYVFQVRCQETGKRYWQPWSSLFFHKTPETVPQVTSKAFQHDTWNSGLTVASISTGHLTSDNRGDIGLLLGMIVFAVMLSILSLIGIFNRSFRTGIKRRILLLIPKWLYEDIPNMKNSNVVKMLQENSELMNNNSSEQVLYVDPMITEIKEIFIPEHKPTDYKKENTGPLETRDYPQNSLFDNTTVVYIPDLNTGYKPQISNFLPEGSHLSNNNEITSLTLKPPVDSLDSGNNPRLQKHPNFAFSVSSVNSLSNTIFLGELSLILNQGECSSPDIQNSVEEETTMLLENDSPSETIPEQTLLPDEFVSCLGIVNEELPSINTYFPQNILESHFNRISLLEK
Method: IL-23 is believed to play a central role in supporting and maintaining Th17 differentiation in vivo. This process is thought to be mediated primarily through the Signal Transducer and Activator of Transcription 3 (STAT3), with phosphorylation of STAT3 (to yield pSTAT3) leading to upregulation of RORC and pro-inflammatory IL-17. […] DB cells (ATCC #CRL-2289), cultured in RPMI-1640 medium (Thermo Scientific #11875093) supplemented with 10% FBS, were added at 5 X 10E5 cells/well and incubated for 30 minutes at 37° C. in a 5% CO2 humidified incubator. Changes in phospho-STAT3 levels in the cell lysates were detected using the Cisbio HTRF pSTAT3 (Tyr705) Cellular Assay Kit (Cisbio #62AT3PEH), according to manufacturer's Two Plate Assay protocol. Where not shown or it is marked as “0”, data was not yet determined.

SMILES: CC(=O)NCCCC[C@@H]1NC(=O)[C@H](Cc2c[nH]c3c(C)cccc23)NC(=O)[C@H]([C@@H](C)O)NC(=O)[C@H](CC(N)=O)NC(=O)[C@@H](NC(=O)[C@@H](CCCNC(=N)N)NC(=O)COCCOCCNC(=O)COCCOCCNC(=O)CC[C@H](NC(=O)CCCCCCCCCCCCCCCCC(=O)O)C(=O)O)C(C)(C)SSC(C)(C)[C@@H](C(=O)N[C@@H](Cc2ccc(OCCN)cc2)C(=O)N[C@@H](Cc2ccc3ccccc3c2)C(=O)NC2(C(=O)N[C@@H](CCCCNC(C)=O)C(=O)N[C@@H](CC(N)=O)C(=O)N[C@@H](Cc3cccnc3)C(=O)N(C)CC(N)=O)CCOCC2)NC1=O
- ring closure, yield after HPLC ([1]; from HOC18gEPEG2PEG2-dArg-Pen-Asn-Thr-7MeTrp-Lys(Ac)-Pen-AEF-2Nal-THP-Lys(Ac)-Asn-3Pya-Sar-NH2, 0.361 mM): 22%

SMILES: CC(=O)NCCCC[C@@H]1NC(=O)[C@H](Cc2c[nH]c3c(C)cccc23)NC(=O)[C@H]([C@@H](C)O)NC(=O)[C@H](CC(N)=O)NC(=O)[C@@H](NC(=O)[C@@H](CCCNC(=N)N)NC(C)=O)C(C)(C)SSC(C)(C)[C@@H](C(=O)N[C@@H](Cc2ccc(OCCN)cc2)C(=O)N[C@@H](Cc2ccc3ccccc3c2)C(=O)NC2(C(=O)N[C@@H](CCC(=O)O)C(=O)N[C@@H](CC(N)=O)C(=O)N[C@@H](Cc3cccnc3)C(=O)N(C)[C@@H](CCCCNC(=O)COCCOCCNC(=O)COCCOCCNC(=O)CC[C@H](NC(=O)CCCCCCCCCCCCCCCCC(=O)O)C(=O)O)C(N)=O)CCOCC2)NC1=O
- ring closure, yield after HPLC ([1]; from Ac-dArg-Pen-Asn-Thr-7MeTrp-Lys(Ac)-Pen-AEF-2Nal-THP-Glu-Asn-3Pya-MeLys(PEG2PEG2gEC18OH)-NH2, […]): 11%

SMILES: CC(=O)NCCCC[C@@H]1NC(=O)[C@H](Cc2c[nH]c3c(C)cccc23)NC(=O)[C@H]([C@@H](C)O)NC(=O)[C@H](CC(N)=O)NC(=O)[C@@H](NC(=O)[C@@H](CCCCNC(=O)COCCOCCNC(=O)COCCOCCNC(=O)CC[C@H](NC(=O)CCCCCCCCCCCCCCCCC(=O)O)C(=O)O)NC(C)=O)C(C)(C)SSC(C)(C)[C@@H](C(=O)N[C@@H](Cc2ccc(OCCN)cc2)C(=O)N[C@@H](Cc2ccc3ccccc3c2)C(=O)NC2(C(=O)N[C@@H](CCCCNC(C)=O)C(=O)N[C@@H](CC(N)=O)C(=O)N[C@@H](Cc3cccnc3)C(=O)N(C)CC(N)=O)CCOCC2)NC1=O
- ring closure, yield after HPLC ([1]; from Ac-dLys(PEG2PEG2gEC18OH)-Pen-Asn-Thr-7MeTrp-Lys(Ac)-Pen-AEF-2Nal-THP-Lys(Ac)-Asn-3Pya-Sar-NH2, […]): 28%

SMILES: COCCOCCOCCOCCC(=O)N[C@@H]1C(=O)N[C@@H](CC(N)=O)C(=O)N[C@@H]([C@@H](C)O)C(=O)N[C@@H](Cc2c[nH]c3c(C)cccc23)C(=O)N[C@@H](CCCCNC(C)=O)C(=O)N[C@H](C(=O)N[C@@H](Cc2ccccc2)C(=O)N[C@@H](Cc2ccc3ccccc3c2)C(=O)N[C@@](C)(CC(C)C)C(=O)N[C@@H](CC(C)C)C(=O)N[C@@H](CC(N)=O)C(=O)N[C@@H](Cc2cccnc2)C(=O)N(C)CC(N)=O)C(C)(C)SSC1(C)C [Example 211, [PEG4_OMe]-[Pen]-N-T-[Trp(7-Me)]-[Lys(Ac)]-[Pen]-F-[2Nal]-[aMeLeu]-L-N-[3Pal]-[Sarc]-NH2] (X3-[Pen]NT[Trp(7-Me)]K(Ac)[Pen]F[2Nal][αMeL]LN[3Pal][Sar]-NH2; disulfide 1-6)
- IC50 [2]: 0.062 nM

SMILES: CCCCCCCCCCCCCCCC(=O)N[C@@H](CCC(=O)NCCOCCOCCOCCOCCOCCOCCOCCOCCOCCOCCOCCOCCC(=O)NCCCC[C@H](NC(=O)C1(NC(=O)[C@H](Cc2ccc3ccccc3c2)NC(=O)[C@H](Cc2ccc(OC)cc2)NC(=O)[C@H]2NC(=O)[C@H](CCCCNC(C)=O)NC(=O)[C@H](Cc3c[nH]c4c(C)cccc34)NC(=O)[C@H]([C@@H](C)O)NC(=O)[C@H](CC(C)C)NC(=O)[C@@H](NC(C)=O)C(C)(C)SSC2(C)C)CCOCC1)C(=O)N[C@@H](CC(C)C)C(=O)N[C@@H](Cc1cccnc1)C(=O)N(C)CC(N)=O)C(=O)O [Example 243, Ac-[Pen]-L-T-[Trp(7-Me)]-[Lys(Ac)]-[Pen]-[Phe(4-OMe)]-[2Nal]-[THP]-[Lys(PEG12_IsoGlu_Palm)]-L-[3Pal]-[Sarc]-NH2] (Ac-[Pen]LT[Trp(7-Me)]K(Ac)[Pen]Y(Me)[2Nal][Thp]K([PEG12-γGlu-Palmitoyl])L[3Pal][Sar]-NH2; disulfide 1-6)
- IC50 [2]: 4.3 nM

SMILES: CC(=O)NCCCC[C@@H]1NC(=O)[C@H](Cc2c[nH]c3c(C)cccc23)NC(=O)[C@H]([C@@H](C)O)NC(=O)[C@H](CC(N)=O)NC(=O)[C@@H](NC(=O)[C@@H](CCCNC(=N)N)NC(C)=O)C(C)(C)SSC(C)(C)[C@@H](C(=O)N[C@@H](Cc2ccc(OCCN)cc2)C(=O)N[C@@H](Cc2ccc3ccccc3c2)C(=O)NC2(C(=O)N[C@@H](CCC(=O)O)C(=O)N[C@@H](CC(N)=O)C(=O)N[C@@H](Cc3cccnc3)C(=O)N(C)CC(=O)N[C@@H](CCCCNC(=O)COCCOCCNC(=O)COCCOCCNC(=O)CC[C@H](NC(=O)CCCCCCCCCCCCCCCCC(=O)O)C(=O)O)C(N)=O)CCOCC2)NC1=O
- ring closure, yield after HPLC ([1]; from Ac-dArg-Pen-Asn-Thr-Trp(7-Me)-Lys(Ac)-Pen-AEF-2Nal-THP-Glu-Asn-3Pya-Sar-Lys(PEG2PEG2gEC18OH)-NH2, 0.345 mM): 5%

SMILES: CC(=O)NCCCC[C@@H]1NC(=O)[C@H](Cc2c[nH]c3c(C)cccc23)NC(=O)[C@H]([C@@H](C)O)NC(=O)[C@H](CC(N)=O)NC(=O)[C@@H](NC(=O)[C@@H](CCCNC(=N)N)NC(C)=O)C(C)(C)SSC(C)(C)[C@@H](C(=O)N[C@@H](Cc2ccc(OCCN)cc2)C(=O)N[C@@H](Cc2ccc3ccccc3c2)C(=O)NC2(C(=O)N[C@@H](CCCCNC(C)=O)C(=O)N[C@@H](CC(N)=O)C(=O)N[C@@H](Cc3cccnc3)C(=O)N(CCOCCOCCNC(=O)COCCOCCNC(=O)CC[C@H](NC(=O)CCCCCCCCCCCCCCCCC(=O)O)C(=O)O)CC(N)=O)CCOCC2)NC1=O
- ring closure, yield after HPLC ([1]; from Ac-dArg-Pen-Asn-Thr-7MeTrp-Lys(Ac)-Pen-AEF-2Nal-THP-Lys(Ac)-Asn-3Pya-N(PEG2PEG2gEC18OH)Gly-NH2, […]): 19.6%

SMILES: CC(=O)NCCCC[C@@H]1NC(=O)[C@H](Cc2c[nH]c3c(C)cccc23)NC(=O)[C@H]([C@@H](C)O)NC(=O)[C@H](CC(N)=O)NC(=O)[C@@H](NC(=O)[C@@H](CCCCNC(=O)COCCOCCNC(=O)COCCOCCNC(=O)CC[C@H](NC(=O)CCCCCCCCCCCCCCCCC(=O)O)C(=O)O)NC(C)=O)C(C)(C)SSC(C)(C)[C@@H](C(=O)N[C@@H](Cc2ccc(OCCN)cc2)C(=O)N[C@@H](Cc2ccc3ccccc3c2)C(=O)NC2(C(=O)N[C@@H](CCCCNC(C)=O)C(=O)N[C@@H](CC(N)=O)C(=O)N[C@@H](Cc3cccnc3)C(=O)N(CC(N)=O)Cc3ccc(C(N)=O)cc3)CCOCC2)NC1=O
- ring closure, yield after HPLC ([1]; from Ac-dLys(PEG2PEG2gEC18OH)-Pen-Asn-Thr-7MeTrp-Lys(Ac)-Pen-AEF-2Nal-THP-Lys(Ac)-Asn-3Pya-N(4AmBenzyl)Gly-NH2, 1.72 mM): 26.8%

SMILES: CC(=O)NCCCC[C@@H]1NC(=O)[C@H](Cc2c[nH]c3c(C)cccc23)NC(=O)[C@H]([C@@H](C)O)NC(=O)[C@H](CC(N)=O)NC(=O)[C@@H](NC(=O)[C@@H](CCCCNC(=O)COCCOCCNC(=O)COCCOCCNC(=O)CC[C@H](NC(=O)CCCCCCCCCOc2cccc(C(=O)O)c2)C(=O)O)NC(C)=O)C(C)(C)SSC(C)(C)[C@@H](C(=O)N[C@@H](Cc2ccc(OCCN)cc2)C(=O)N[C@@H](Cc2ccc3ccccc3c2)C(=O)NC2(C(=O)N[C@@H](CCCCNC(=O)COCCOCCNC(=O)COCCOCCNC(=O)CC[C@H](NC(=O)CCCCCCCCCOc3cccc(C(=O)O)c3)C(=O)O)C(=O)N[C@@H](CC(N)=O)C(=O)N[C@@H](Cc3cccnc3)C(=O)N(C)CC(N)=O)CCOCC2)NC1=O
- ring closure, yield after HPLC ([1]; from Ac-dLys(PEG2PEG2gEmXOH)-Pen-Asn-Thr-7MeTrp-Lys(Ac)-Pen-AEF-2Nal-THP-Lys(PEG2PEG2gEmXOH)-Asn-3Pya-Sar-NH2, […]): 13%

SMILES: CCCCCCCCCCCCCCCC(=O)N[C@@H](CCC(=O)NCCCC[C@H](NC(=O)C1(NC(=O)[C@H](Cc2ccc3ccccc3c2)NC(=O)[C@H](Cc2ccc(OCCN)cc2)NC(=O)[C@H]2NC(=O)[C@H](CCCCNC(C)=O)NC(=O)[C@H](Cc3c[nH]c4c(C)cccc34)NC(=O)[C@H]([C@@H](C)O)NC(=O)[C@H](CC(N)=O)NC(=O)[C@@H](NC(=O)[C@@H](CCCCNC(=O)COCCOCCNC(=O)COCCOCCNC(=O)CC[C@H](NC(=O)CCCCCCCCCCCCCCC(=O)O)C(=O)O)NC(C)=O)C(C)(C)SSC2(C)C)CCOCC1)C(=O)N[C@@H](CC(N)=O)C(=O)N[C@@H](Cc1cccnc1)C(=O)N(C)CC(N)=O)C(=O)O
- ring closure, yield after HPLC ([1]; from Ac-dLys(PEG2PEG2gEC16OH)-Pen-Asn-Thr-7MeTrp-Lys(Ac)-Pen-AEF-2Nal-THP-Lys(gEC16)-Asn-3Pya-Sar-NH2, 1.62 mM): 13%

SMILES: CC(=O)NCCCC[C@@H]1NC(=O)[C@H](Cc2c[nH]c3c(C)cccc23)NC(=O)[C@H]([C@@H](C)O)NC(=O)[C@H](CC(N)=O)NC(=O)[C@@H](NC(=O)[C@@H](CCCNC(=N)N)NC(C)=O)C(C)(C)SSC(C)(C)[C@@H](C(=O)N[C@@H](Cc2ccc(OCCNC(=O)COCCOCCNC(=O)COCCOCCNC(=O)CC[C@H](NC(=O)CCCCCCCCCCCCCCCCC(=O)O)C(=O)O)cc2)C(=O)N[C@@H](Cc2ccc3ccccc3c2)C(=O)NC2(C(=O)N[C@@H](CCCCNC(C)=O)C(=O)N[C@@H](CC(N)=O)C(=O)N[C@@H](Cc3cccnc3)C(=O)N(C)CC(N)=O)CCOCC2)NC1=O
- ring closure, yield after HPLC ([1]; from Ac-dArg-Pen-Asn-Thr-7MeTrp-Lys(Ac)-Pen-AEF(PEG2PEG2gEC18OH)-2Nal-THP-Lys(Ac)-Asn-3Pya-Sar-NH2, 0.355 mM): 10%
